In ChEMBL document CHEMBL5365394, “Design, synthesis and biological evaluation of novel spiro-quinazolinone derivatives as chitin synthase inhibitors and antifungal agents” (Eur J Med Chem, 2023):
Converted amounts (≈) assume the structure as drawn.

Experiments:
[1] = test system: Candida tropicalis; assay: Inhibition of Candida tropicalis ATCC 750 chitin synthase using […] as substrate at 300 ug/ml incubated for 1 hr by absorbance based assay relative to control; details: dose 300.0 µg/ml
[2] = Inhibition of Candida tropicalis ATCC 750 chitin synthase using UDP-GlcNAc as substrate incubated for 1 hr by absorbance based assay
[3] = test system: Candida albicans; assay: Antifungal activity against Candida albicans ATCC 76615 assessed as fungal growth inhibition incubated for 24 hrs by two-fold serial dilution method; type: functional
[4] = test system: Aspergillus flavus; assay: Antifungal activity against Aspergillus flavus ATCC 16870 assessed as fungal growth inhibition incubated for 24 hrs by two-fold serial dilution method; type: functional
[5] = test system: Aspergillus fumigatus; assay: Antifungal activity against Aspergillus fumigatus GIMCC 3.19 assessed as fungal growth inhibition incubated for 24 hrs by two-fold serial dilution method; type: functional
[6] = test system: Cryptococcus neoformans; assay: Antifungal activity against Cryptococcus neoformans ATCC 32719 assessed as fungal growth inhibition incubated for 24 hrs by two-fold serial dilution method; type: functional
[7] = test system: Aspergillus flavus; assay: Antifungal activity against Aspergillus flavus ATCC 16870 assessed as inhibition of cell wall synthesis incubated for 24 hrs in presence of sorbitol; type: functional
[8] = test system: Candida albicans; assay: Antifungal activity against Candida albicans ATCC 76615 assessed as inhibition of cell wall synthesis incubated for 24 hrs in presence of sorbitol; type: functional
[9] = test system: Aspergillus fumigatus; assay: Antifungal activity against Aspergillus fumigatus GIMCC 3.19 assessed as inhibition of cell wall synthesis incubated for 24 hrs in presence of sorbitol; type: functional
[10] = test system: Cryptococcus neoformans; assay: Antifungal activity against Cryptococcus neoformans ATCC 32719 assessed as inhibition of cell wall synthesis incubated for 24 hrs in presence of sorbitol; type: functional
[11] = test system: Candida albicans; assay: Antifungal activity against Fluconazole-resistant Candida albicans ATCC 76615R assessed as fungal growth inhibition; type: functional
[12] = test system: Aspergillus flavus; assay: Antifungal activity against Fluconazole-resistant Aspergillus flavus ATCC 16870R assessed as fungal growth inhibition; type: functional
[13] = test system: Aspergillus fumigatus; assay: Antifungal activity against Fluconazole-resistant Aspergillus fumigatus GIMCC 3.19R assessed as fungal growth inhibition; type: functional
[14] = test system: Cryptococcus neoformans; assay: Antifungal activity against Fluconazole-resistant Cryptococcus neoformans ATCC 32719R assessed as fungal growth inhibition; type: functional
[15] = test system: Candida albicans; assay: Antifungal activity against Micafungin-resistant Candida albicans ATCC 76615R assessed as fungal growth inhibition; type: functional
[16] = test system: Candida albicans; assay: Synergistic antifungal activity against Candida albicans ATCC 76615 assessed as fluconazole MIC incubated for 24 hrs in by checkerboard broth microdilution method; type: functional
[17] = test system: Aspergillus fumigatus; assay: Synergistic antifungal activity against Aspergillus fumigatus GIMCC 3.19 assessed as polyoxin B MIC incubated for 24 hrs by checkerboard broth microdilution method; type: functional
[18] = test system: Aspergillus flavus; assay: Synergistic antifungal activity against Aspergillus flavus ATCC 16870 assessed as fluconazole MIC incubated for 24 hrs in by checkerboard broth microdilution method; type: functional
[19] = test system: Aspergillus fumigatus; assay: Synergistic antifungal activity against Aspergillus fumigatus GIMCC 3.19 assessed as fluconazole MIC incubated for 24 hrs in by checkerboard broth microdilution method; type: functional
[20] = test system: Cryptococcus neoformans; assay: Synergistic antifungal activity against Cryptococcus neoformans ATCC 32719 assessed as fluconazole MIC incubated for 24 hrs in by checkerboard broth microdilution method; type: functional
[21] = test system: Candida albicans; assay: Synergistic antifungal activity against Candida albicans ATCC 76615 assessed as polyoxin B MIC incubated for 24 hrs by checkerboard broth microdilution method; type: functional
[22] = test system: Aspergillus flavus; assay: Synergistic antifungal activity against Aspergillus flavus ATCC 16870 assessed as polyoxin B MIC incubated for 24 hrs by checkerboard broth microdilution method; type: functional
[23] = test system: Cryptococcus neoformans; assay: Synergistic antifungal activity against Cryptococcus neoformans ATCC 32719 assessed as polyoxin B MIC incubated for 24 hrs in by checkerboard broth microdilution method; type: functional
[24] = test system: Candida albicans; assay: Additive antifungal activity against Candida albicans ATCC 76615 assessed as fractional inhibitory concentration index incubated for 24 hrs in presence of fluconazole by checkerboard broth microdilution method; type: functional
[25] = test system: Aspergillus flavus; assay: Additive antifungal activity against Aspergillus flavus ATCC 16870 assessed as fractional inhibitory concentration index incubated for 24 hrs in presence of fluconazole by checkerboard broth microdilution method; type: functional
[26] = test system: Cryptococcus neoformans; assay: Additive antifungal activity against Cryptococcus neoformans ATCC 32719 assessed as fractional inhibitory concentration index incubated for 24 hrs in presence of fluconazole by checkerboard broth microdilution method; type: functional
[27] = test system: Candida albicans; assay: Synergistic antifungal activity against Candida albicans ATCC 76615 assessed as fractional inhibitory concentration index incubated for 24 hrs in presence of polyoxin B by checkerboard broth microdilution method; type: functional
[28] = test system: Aspergillus flavus; assay: Additive antifungal activity against Aspergillus flavus ATCC 16870 assessed as fractional inhibitory concentration index incubated for 24 hrs in presence of polyoxin B by checkerboard broth microdilution method; type: functional
[29] = test system: Cryptococcus neoformans; assay: Additive antifungal activity against Cryptococcus neoformans ATCC 32719 assessed as fractional inhibitory concentration index incubated for 24 hrs in presence of polyoxin B by checkerboard broth microdilution method; type: functional
[30] = test system: Candida albicans; assay: Antifungal activity against Candida albicans ATCC 76615 assessed as inhibition of cell wall synthesis incubated for 24 hrs in absence of sorbitol; type: functional
[31] = test system: Aspergillus flavus; assay: Antifungal activity against Aspergillus flavus ATCC 16870 assessed as inhibition of cell wall synthesis incubated for 24 hrs in absence of sorbitol; type: functional
[32] = test system: Aspergillus fumigatus; assay: Antifungal activity against Aspergillus fumigatus GIMCC 3.19 assessed as inhibition of cell wall synthesis incubated for 24 hrs in absence of sorbitol; type: functional
[33] = test system: Cryptococcus neoformans; assay: Antifungal activity against Cryptococcus neoformans ATCC 32719 assessed as inhibition of cell wall synthesis incubated for 24 hrs in absence of sorbitol; type: functional
[34] = test system: Aspergillus fumigatus; assay: Additive antifungal activity against Aspergillus fumigatus GIMCC 3.19 assessed as fractional inhibitory concentration index incubated for 24 hrs in presence of fluconazole by checkerboard broth microdilution method; type: functional
[35] = test system: Aspergillus fumigatus; assay: Additive antifungal activity against Aspergillus fumigatus GIMCC 3.19 assessed as fractional inhibitory concentration index incubated for 24 hrs in presence of polyoxin B by checkerboard broth microdilution method; type: functional
[36] = test system: Aspergillus fumigatus; assay: Synergistic antifungal activity against Aspergillus fumigatus GIMCC 3.19 assessed as fractional inhibitory concentration index incubated for 24 hrs in presence of polyoxin B by checkerboard broth microdilution method; type: functional
[37] = test system: Cryptococcus neoformans; assay: Synergistic antifungal activity against Cryptococcus neoformans ATCC 32719 assessed as fractional inhibitory concentration index incubated for 24 hrs in presence of fluconazole by checkerboard broth microdilution method; type: functional
[38] = test system: Candida albicans; assay: Additive antifungal activity against Candida albicans ATCC 76615 assessed as fractional inhibitory concentration index incubated for 24 hrs in presence of polyoxin B by checkerboard broth microdilution method; type: functional
[39] = test system: Cryptococcus neoformans; assay: Synergistic antifungal activity against Cryptococcus neoformans ATCC 32719 assessed as fractional inhibitory concentration index incubated for 24 hrs in presence of polyoxin B by checkerboard broth microdilution method; type: functional

Structure (SMILES)	inhibition [1] [%]	IC50 [2] [µM]	MIC [3] [µg/mL]	MIC [4] [µg/mL]	MIC [5] [µg/mL]	MIC [6] [µg/mL]	MIC [7] [µg/mL]	MIC [8] [µg/mL]	MIC [9] [µg/mL]	MIC [10] [µg/mL]	MIC [11] [µg/mL]	MIC [12] [µg/mL]	MIC [13] [µg/mL]	MIC [14] [µg/mL]	MIC [15] [µg/mL]	MIC [16] [µg/mL]	MIC [17] [µg/mL]	MIC [18] [µg/mL]	MIC [19] [µg/mL]	MIC [20] [µg/mL]	other results
Cc1ccc([N+](=O)[O-])cc1NC(=O)/C=C/C(=O)Nc1ccc2c(c1)C(=O)NC1(CCSC1)N2 (stereo not given)	77.4	123	2 (≈ 4.28 µM)	16 (≈ 34.2 µM)	16 (≈ 34.2 µM)	8 (≈ 17.1 µM)	256	128	128	128	16 (≈ 34.2 µM)	32 (≈ 68.4 µM)	16 (≈ 34.2 µM)	32 (≈ 68.4 µM)	16 (≈ 34.2 µM)	2	2	1	1	2	MIC [21]: 2 µg/mL; MIC [22]: 2 µg/mL; MIC [23]: 16 µg/mL; fractional inhibitory concentration index (FICI) [24]: 1.5; fractional inhibitory concentration index (FICI) [25]: 1.25; fractional inhibitory concentration index (FICI) [26]: 1.5; fractional inhibitory concentration index (FICI) [27]: 0.5; fractional inhibitory concentration index (FICI) [28]: 1.125; fractional inhibitory concentration index (FICI) [29]: 1.5; MIC [30]: 8 µg/mL (≈ 17.1 µM); MIC [31]: 16 µg/mL (≈ 34.2 µM); MIC [32]: 16 µg/mL (≈ 34.2 µM); MIC [33]: 16 µg/mL (≈ 34.2 µM); fractional inhibitory concentration index (FICI) [34]: 1.125; fractional inhibitory concentration index (FICI) [35]: 1.125
O=C(/C=C/C(=O)Nc1ccc2c(c1)C(=O)NC1(CCSC1)N2)Nc1ccc(Br)cc1 (stereo not given)	75.3	117	16 (≈ 32.8 µM)	16 (≈ 32.8 µM)	8 (≈ 16.4 µM)	2 (≈ 4.1 µM)	256	128	256	128	32 (≈ 65.7 µM)	32 (≈ 65.7 µM)	16 (≈ 32.8 µM)	8 (≈ 16.4 µM)	16 (≈ 32.8 µM)	1	8	4	1	2	MIC [21]: 2 µg/mL; MIC [22]: 2 µg/mL; MIC [23]: 4 µg/mL; fractional inhibitory concentration index (FICI) [24]: 1.5; fractional inhibitory concentration index (FICI) [25]: 1.5; fractional inhibitory concentration index (FICI) [28]: 1.125; fractional inhibitory concentration index (FICI) [36]: 1; MIC [30]: 16 µg/mL (≈ 32.8 µM); MIC [31]: 32 µg/mL (≈ 65.7 µM); MIC [32]: 16 µg/mL (≈ 32.8 µM); MIC [33]: 8 µg/mL (≈ 16.4 µM); fractional inhibitory concentration index (FICI) [34]: 1.125; fractional inhibitory concentration index (FICI) [37]: 0.75; fractional inhibitory concentration index (FICI) [38]: 1.25; fractional inhibitory concentration index (FICI) [39]: 0.75
